Laboratory results taken from US11407742B2 (THE KITASATO INSTITUTE, priority 2017, dated 2022).
≈ marks a conversion by molar mass, not a printed value.

Key:
[1] = test system: Mycobacterium intracellulare JCM 6384 strain; assay: Antibacterial activity against Mycobacterium avium complex, broth microdilution MIC (Test II-1); format: cell-based; settings: JCM6384, 37° C. for 120 hours, MTT, minimum concentration inhibiting growth of 90% or more
Description: (§1) 6 mL of 7H9 liquid medium (Middlebrook 7H9 broth 0.5% (DIFCO), bovine serum albumin 5.0% (SIGMA), glucose 2.0% (Wako Pure Chemical Industries, Ltd.) and sodium chloride 0.85% (Kanto Chemical Co., Inc.)) containing 0.05% Tween80 (Wako Pure Chemical Industries, Ltd.) was put in a cell culturing flask T25 (Corning incorporated). To this flask was added 200 μL of a glycerol stored bacterial suspension of Mycobacterium avium (JCM15430, given by Institute of Physical and Chemical Research, Microbe Division) or 120 μL of a glycerol stored bacterial suspension of Mycobacterium intracellulare (JCM6384, given by Institute of Physical and Chemical Research, Microbe Division). The Mycobacterium avium was statically cultured at 37° C. for 96 hours, and the Mycobacterium intracellulare was statically cultured at 37° C. for 72 hours. The cultured bacterial suspension was diluted with the medium by 200 times for the Mycobacterium avium and by 600 times for the Mycobacterium intracellulare to prepare bacterial suspensions for inoculation (equivalent to 4×10^6 CFU/mL). The minimum inhibitory concentration (MIC) of each bacterial suspension was measured by carrying out a broth microdilution method in accordance with the following procedure. To a 96-well microplate, a two-stage dilution series (a final concentration of 0.001 to 50 μg/mL) of a test compound sample prepared beforehand was dispensed at 5 μL/well. Next, the bacterial suspension for inoculation was added at 95 μL/well. The culture solution in the well was mixed, and the resulting mixture cultured at 37° C. for 120 hours. After the culture, MTT reagent (SIGMA) was added at 5 μL/well, and the resulting mixture was cultured at 37° C. for 16 hours. Thereafter, a cytolytic buffer (dimethylformamide: 40.0% (nacalai tesque), acetic acid: 2.0% (Kanto Chemical Co., Inc.), sodium dodecyl sulfate: 20.0% (Wako Pure Chemical Industries, Ltd.), hydrochloric acid: 0.03 N (Kanto Chemical Co., Inc.)) at 95 μL/well, and the resulting mixture was shaken for 1 hour. For the culture solution in each well, the absorbance was measured at 570 nm, the growth inhibition rate was then calculated, and the minimum concentration indicative of inhibition of growth of 90% or more of bacteria was defined as a MIC value. Compounds 40551-F, -D, -G, -H, -I, -K and -L were used as test compounds, and ethambutol which is a known drug that is used for treatment of MAC infection was used as a comparative compound.

[2] = test system: Mycobacterium avium JCM 15430 strain; assay: as above; format: cell-based; settings: JCM15430, 37° C. for 120 hours, MTT, minimum concentration inhibiting growth of 90% or more
Description: as §1

[3] = test system: Mycobacterium bovis BCG Pasteur strain; assay: microbe, parasite or virus in culture; format: cell-based; settings: Mycobacterium tuberculosis variant bovis BCG
Solubility in solvent = format: physicochemical; settings: organic solvents (methanol, DMSO)
[4] = test system: Mycobacterium smegmatis MC^2155 strain; assay: Antibacterial activity against other nontuberculous mycobacteria, broth microdilution MIC (Test II-2); format: cell-based; settings: Mycolicibacterium smegmatis, 37° C. for 30 hours, growth observed with the naked eye
Description: as §1
A test against Mycobacterium smegmatis as other nontuberculous mycobacteria was conducted in accordance with the following procedure. 6 mL of 7H9 liquid medium containing 0.5% Tween80 (Wako Pure Chemical Industries, Ltd.) was put in a cell culturing flask T25 (Corning incorporated). In this flask, a glycelol stored bacterial suspension of Mycobacterium smegmatis (MC^2155, acquired from American Type Culture Collection) was inoculated with one platinum loop, and statically cultured at 37° C. for 30 hours. The cultured bacterial suspension was then diluted by 200 times with the medium to prepare a bacterial suspension for inoculation (equivalent to 8×10^6 CFU/mL). The MIC of the bacterial suspension was measured by carrying out a broth microdilution method in the same procedure as in Test II-1. The bacterial suspension was cultured under conditions of 37° C. for 30 hours, and the MIC value was determined by observing growth of bacteria with the naked eye.

Compound `CC(C)C(=O)Nc1ccc(C(=O)Nc2ccn(C3CCC(OC4OC(C)C(N(C)C)C(O)C4O)C(C)O3)c(=O)n2)cc1` (stereo not drawn) [Compound 40551-D] has an MIC [1] of 12.5 µg/mL (≈ 21.3 µM), an MIC [2] of 12.5 µg/mL (≈ 21.3 µM) and an MIC [3] of 6.25 µg/mL (≈ 10.6 µM). For the same compound, the Solubility in solvent (Solubility in solvent) was “soluble in methanol, DMSO, etc”.
In the case of `CC(C)=CC(=O)Nc1ccn(C2CCC(OC3OC(C)C(N(C)C)C(O)C3O)C(C)O2)c(=O)n1` (stereo not drawn) [Compound 40551-F, N-(1-(5-((5-(dimethylamino)-3,4-dihydroxy-6-methyltetrahydro-2H-pyran-2-yl)oxy)-6-methyltetrahydro-2H-pyran-2-yl)-2-oxo-1,2-dihydropyrimidine-4-yl)-3-methylbuta-2-enamide], the MIC [1] is reported as 0.39 µg/mL (≈ 0.812 µM), the MIC [2] is reported as 0.78 µg/mL (≈ 1.62 µM) and the MIC [3] is reported as 1.56 µg/mL (≈ 3.25 µM). For the same compound, the MIC [4] was 3.12 µg/mL (≈ 6.49 µM) and the Solubility in solvent (Solubility in solvent) was “soluble in methanol, DMSO, etc”.
For `CCC(C)/C=C/C(=O)Nc1ccn(C2CCC(OC3OC(C)C(N(C)C)C(O)C3O)C(C)O2)c(=O)n1` (stereo not drawn) [Compound 40551-G], the MIC [1] was 3.12 µg/mL (≈ 6.13 µM), the MIC [2] was 6.25 µg/mL (≈ 12.3 µM) and the MIC [3] was 6.25 µg/mL (≈ 12.3 µM). The MIC [4] was 12.5 µg/mL (≈ 24.6 µM) and the Solubility in solvent (Solubility in solvent) was “soluble in methanol, DMSO, etc”.
Work on `CC1OC(n2ccc(NC(=O)c3ccc(N4C(=O)C(C)(CO)NC4(C)C)cc3)nc2=O)CCC1OC1OC(C)C(N(C)C)C(O)C1O` (stereo not drawn) [Compound 40551-H] yielded an MIC [1] of 1.56 µg/mL (≈ 2.37 µM), an MIC [2] of 12.5 µg/mL (≈ 19 µM) and an MIC [3] of 0.39 µg/mL (≈ 0.592 µM). The MIC [4] was 1.56 µg/mL (≈ 2.37 µM) and the Solubility in solvent (Solubility in solvent) was “soluble in methanol, DMSO, etc”.
In the case of `C/C=C(\C)C(=O)Nc1ccn(C2CCC(OC3OC(C)C(N(C)C)C(O)C3O)C(C)O2)c(=O)n1` (stereo not drawn) [Compound 40551-I, (E)-N-(1-(5-((5-(dimethylamino)-3,4-dihydroxy-6-methyltetrahydro-2H-pyran-2-yl)oxy)-6-methyltetrahydro-2H-pyran-2-yl)-2-oxo-1,2-dihydropyrimidin-4-yl)-2-methylbuta-2-enamide], the MIC [1] is reported as 25 µg/mL (≈ 52 µM), the MIC [3] is reported as 6.25 µg/mL (≈ 13 µM) and the Solubility in solvent (Solubility in solvent) is reported as “soluble in methanol, DMSO, etc”.
`CC(C)CC(=O)Nc1ccn(C2CCC(OC3OC(C)C(N(C)C)C(O)C3O)C(C)O2)c(=O)n1` (stereo not drawn) [Compound 40551-K] showed an MIC [1] of 6.25 µg/mL (≈ 13 µM), an MIC [2] of 25 µg/mL (≈ 51.8 µM) and an MIC [3] of 6.25 µg/mL (≈ 13 µM). For the same compound, the MIC [4] was 25 µg/mL (≈ 51.8 µM) and the Solubility in solvent (Solubility in solvent) was “soluble in methanol, DMSO, etc”.
Compound `CC(C)/C=C/C(=O)Nc1ccn(C2CCC(OC3OC(C)C(N(C)C)C(O)C3O)C(C)O2)c(=O)n1` (stereo not drawn) [Compound 40551-L, (E)-N-(1-(5-((5-(dimethylamino)-3,4-dihydroxy-6-methyltetrahydro-2H-pyran-2-yl)oxy)-6-methyltetrahydro-2H-pyran-2-yl)-2-oxo-1,2-dihydropyrimidin-4-yl)-4-methylpenta-2-enamide] has an MIC [1] of 0.78 µg/mL (≈ 1.58 µM), an MIC [2] of 3.12 µg/mL (≈ 6.31 µM) and an MIC [3] of 1.56 µg/mL (≈ 3.15 µM). For the same compound, the MIC [4] was 3.12 µg/mL (≈ 6.31 µM) and the Solubility in solvent (Solubility in solvent) was “soluble in methanol, DMSO, etc”.
Compound `CC[C@@H](CO)NCCN[C@@H](CC)CO` [Ethambutol, reference compound] has an MIC [1] of 3.12 µg/mL (≈ 15.3 µM), an MIC [2] of 12.5 µg/mL (≈ 61.2 µM) and an MIC [3] of 1.56 µg/mL (≈ 7.64 µM). The MIC [4] was 0.78 µg/mL (≈ 3.82 µM).
